Source: patent publication US20120329794A1, “Ab1 KINASE INHIBITORS” (Kyowa Hakko Kirin Co., Ltd., priority 2006, published 2012)

Each compound was assayed against T1, Abl(T315I) protein (Homo sapiens, UniProt P00519, T315I) (assay: Abl T315I inhibitory activity (radiometric kinase assay)). Conditions: 1 μmol/L test compound.
T1 construct: purchased Upstate 14-522
Assay type: biochemical
Procedure: In order to measure Abl T315I inhibitory activity, the following method was used: A reaction solution was prepared so that the final concentrations in a volume of 25 μL were 5 to 10 mU of Abl(T315I) protein (Upstate, catalog No. 14-522), 8 mmol/L of 3-morpholinopropane sulfonic acid (pH 7.0), 0.2 mmol/L of, EDTA, 50 μmol/L of EAIYAAPFAKKK, 10 mmol/L of Mg acetate, [γ-^33P-ATP] (500 cpm/pmol), 0.1% of dimethyl sulfoxide (DMSO), and 1 μmol/L of test compound, followed by enzyme reaction at room temperature for 40 minutes. The reaction was terminated with 5 μL of a 3% aqueous phosphoric acid solution, and the reaction solution was added to a P30 filter mat. Then, the filter was washed with a 75 mmol/L aqueous phosphoric acid solution three times and 100% methanol once, and then dried. Then, the radioactivity of the filter was measured.
Assuming that a measured value of an enzyme to which 0.1% of DMSO was added was 100%, and a measured value of a sample to which an enzyme was not added was 0%, the relative activity (%) of radioactivity of a sample to which the test compound was added was calculated, and a value obtained by subtracting the calculated value from 100 was considered as Abl T315I inhibitory activity (%) of the test compound.
`CC(=O)N1CCN(C(=O)c2ccc(/C=C/c3n[nH]c4ccccc34)cc2)CC1` [Compound 6] gave an inhibition at 1 µM of at least 90%.
`COCC(=O)N1CCN(C(=O)c2ccc(/C=C/c3n[nH]c4ccccc34)cc2)CC1` [Compound 7] was tested, and the inhibition at 1 µM was at least 90%.
Compound `Nc1cc(/C=C/c2n[nH]c3ccccc23)ccc1OCCN1CCOCC1` [Compound 4] has an inhibition at 1 µM of at least 90%.
